# Experimental data from article PMC11790914, “Chemogenomics for steroid hormone receptors (NR3)” (Communications Chemistry, 2025).
# “And” between values parts separate entries of the source, which are not always exact repeats. Equal values may be shown once.
# Columns and labels:
# BRPF1 = biological target: T1, BRPF1 (Homo sapiens, UniProt P55201); test: Liability panel screening by DSF: BRPF1; assay type: binding; details: DSF, 20 µM, n=2; read-out: Mean ΔTM BRPF1
# T1 construct: This panel comprised ten highly ligandable kinases and bromodomains; made in house
# T1 sequence (P55201 628-732 limits assumed): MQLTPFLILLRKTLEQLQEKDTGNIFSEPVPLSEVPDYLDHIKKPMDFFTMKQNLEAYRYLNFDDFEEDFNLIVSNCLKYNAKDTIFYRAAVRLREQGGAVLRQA
# Procedure, shortened: (§1)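 Thermal shift: in-house recombinant protein at 2 µM in 10 mM HEPES pH 7.5 with 500 mM NaCl, SYPRO Orange 1:1000, heated at 3 °C/min to 85 °C in technical duplicates. Tm is the Boltzmann inflection point, reported as ∆Tm in K.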
# NR3A2 (ERβ) = details: cited from earlier work
# NR3A1 (ERα) = details: cited from earlier work
# TRIM24 = biological target: T2, TRIM24 (Homo sapiens, UniProt O15164); test: Liability panel screening by DSF: TRIM24; assay type: binding; details: DSF, 20 µM, n=2; read-out: Mean ΔTM TRIM24
# T2 construct: This panel comprised ten highly ligandable kinases and bromodomains; made in house
# T2 sequence (O15164 899-1004 limits assumed): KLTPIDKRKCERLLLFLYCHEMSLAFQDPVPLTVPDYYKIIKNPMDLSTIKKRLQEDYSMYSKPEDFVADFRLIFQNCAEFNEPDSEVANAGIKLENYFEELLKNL
# Procedure, shortened: as §1
# BRD4 = biological target: T3, BRD4 (Homo sapiens, UniProt O60885); test: Liability panel screening by DSF: BRD4; assay type: binding; details: DSF, 20 µM, n=2; read-out: Mean ΔTM BRD4
# T3 construct: This panel comprised ten highly ligandable kinases and bromodomains; made in house
# Procedure, shortened: as §1
# [1] = test system: ATF6 activity in Hela ATF6 reporter cells; test: Endoplasmic reticulum stress assay (ATF6 Renilla luciferase reporter, tunicamycin); assay type: cell-based; details: Homo sapiens, HeLa, 1 µM, single replicates n=1 to n=5; read-out: ER stress [rel. ATF6 activity]
# Procedure, shortened: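 ER stress was induced by 100 ng/mL tunicamycin added 4 h after compound (0.1% DMSO) to HeLa ATF6 reporter cells. After 18 h more, Renilla luciferase signal was read and expressed relative to DMSO control, n=5 biological replicates.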
# FGFR3 = biological target: T4, FGFR3 (Homo sapiens, UniProt P22607); test: Liability panel screening by DSF: FGFR3; assay type: binding; details: DSF, 20 µM, n=2; read-out: Mean ΔTM FGFR3
# T4 construct: made in house
# Procedure, shortened: as §1
# HEK293T cells [2] = test: Cytotoxicity: necrosis induction (red fluorescent dye for permeable plasma membranes); assay type: cell-based; details: 1 µM, 24 h, necrotic cell count normalized to 0.1% DMSO, single replicates;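 also: compounds applied in DMEM high glucose with 0.1% FCS and 0.1% DMSO, necrotic HEK293T cells counted by red staining of cells whose plasma membranes had become permeable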
# CDK2 = biological target: T5, CDK2 (Homo sapiens, UniProt P24941); test: Liability panel screening by DSF: CDK2; assay type: binding; details: DSF, 20 µM, n=2; read-out: Mean ΔTM CDK2
# T5 construct: made in house
# Procedure, shortened: as §1
# MAPK1 = biological target: T6, MAPK1 (Homo sapiens, UniProt P28482); test: Liability panel screening by DSF: MAPK1; assay type: binding; details: DSF, 20 µM, n=2; read-out: Mean ΔTM MAPK1
# T6 construct: made in house
# Procedure, shortened: as §1
# CSNK1D = biological target: T7, CSNK1D (Homo sapiens, UniProt P48730); test: Liability panel screening by DSF: CSNK1D; assay type: binding; details: DSF, 20 µM, n=2; read-out: Mean ΔTM CSNK1D
# T7 construct: made in house
# Procedure, shortened: as §1
# GSK3B = biological target: T8, GSK3B (Homo sapiens, UniProt P49841); test: Liability panel screening by DSF: GSK3B; assay type: binding; details: DSF, 20 µM, n=2; read-out: Mean ΔTM GSK3B
# T8 construct: made in house
# HEK293T cells [3] = test: Cytotoxicity: apoptosis induction (caspase-3/7 DEVD fluorogenic DNA dye); details: 1 µM; HEK293T, 24 h; apoptotic cell count normalized to 0.1% DMSO; single replicates
# AURKA = biological target: T9, AURKA (Homo sapiens, UniProt O14965); test: Liability panel screening by DSF: AURKA; assay type: binding; details: DSF, 20 µM, n=2; read-out: Mean ΔTM AURKA
# T9 construct: made in house
# T9 sequence (O14965 1-403): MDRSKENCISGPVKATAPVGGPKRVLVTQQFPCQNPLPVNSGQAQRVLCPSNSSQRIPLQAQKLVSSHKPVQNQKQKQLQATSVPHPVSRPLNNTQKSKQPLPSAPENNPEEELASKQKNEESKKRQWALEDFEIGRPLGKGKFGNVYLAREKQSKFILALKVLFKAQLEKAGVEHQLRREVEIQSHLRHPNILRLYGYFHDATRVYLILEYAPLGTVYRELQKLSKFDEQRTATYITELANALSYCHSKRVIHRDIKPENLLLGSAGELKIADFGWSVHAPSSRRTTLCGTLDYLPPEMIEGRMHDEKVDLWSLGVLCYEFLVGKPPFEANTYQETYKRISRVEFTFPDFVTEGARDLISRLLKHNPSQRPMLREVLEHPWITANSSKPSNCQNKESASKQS
# Procedure, shortened: as §1
# ABL1 = biological target: T10, ABL1 (Homo sapiens, UniProt P00519); test: Liability panel screening by DSF: ABL1; assay type: binding; details: DSF, 20 µM, n=2; read-out: Mean ΔTM ABL1
# T10 construct: made in house
# Procedure, shortened: as §1
# [4] = test system: NF-κB activity in HEK293 NF-κB reporter cells; test: NF-kB activity assay (GFP reporter, ionomycin/PMA); assay type: cell-based; details: for Mean NFκB response: n=3; for NF-κB activity (inflammatory response to ionomycin/PMA): HEK293 NF-κB reporter cells, compounds at recommended concentrations, imaged over 24 h, n = 3
# Procedure, shortened: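 Reporter readout: GFP-expressing cells normalized to confluence, imaged every 90 min across 24 h after ionomycin (100 ng/mL)/PMA (10 ng/mL) stimulation of HEK293 cells pre-treated 4 h with compound (0.1% DMSO); triplicate independent experiments.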
# HEK293T cells [5] = test: Cytotoxicity: growth-rate (change in confluence over 24 h); details: 1 µM, normalized to 0.1% DMSO control, single replicates (n=1...)
# HEK293T cells [6] = test: Cytotoxicity: metabolic activity (WST-8 / CCK-8 assay); details: 1 µM; HEK293T, 24 h; WST-8; normalized to 0.1% DMSO; single replicates
# [7] = known off-target outside the NR family at the recommended concentration; ref Supplementary Table 1 (superscript references); cited from earlier work
# T8 sequence (P49841 whole entry, species assumed): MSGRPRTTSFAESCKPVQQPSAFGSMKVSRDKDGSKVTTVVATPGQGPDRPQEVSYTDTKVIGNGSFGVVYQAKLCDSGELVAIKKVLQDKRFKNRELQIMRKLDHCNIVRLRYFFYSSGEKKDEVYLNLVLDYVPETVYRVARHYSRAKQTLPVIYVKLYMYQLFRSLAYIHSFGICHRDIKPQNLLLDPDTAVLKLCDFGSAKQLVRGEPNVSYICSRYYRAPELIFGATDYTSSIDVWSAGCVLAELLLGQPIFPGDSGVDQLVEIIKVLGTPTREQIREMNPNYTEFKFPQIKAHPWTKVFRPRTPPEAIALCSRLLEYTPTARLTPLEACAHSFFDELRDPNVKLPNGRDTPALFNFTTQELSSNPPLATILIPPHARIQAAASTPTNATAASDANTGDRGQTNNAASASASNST
# T4 sequence (P22607 23-806, species assumed): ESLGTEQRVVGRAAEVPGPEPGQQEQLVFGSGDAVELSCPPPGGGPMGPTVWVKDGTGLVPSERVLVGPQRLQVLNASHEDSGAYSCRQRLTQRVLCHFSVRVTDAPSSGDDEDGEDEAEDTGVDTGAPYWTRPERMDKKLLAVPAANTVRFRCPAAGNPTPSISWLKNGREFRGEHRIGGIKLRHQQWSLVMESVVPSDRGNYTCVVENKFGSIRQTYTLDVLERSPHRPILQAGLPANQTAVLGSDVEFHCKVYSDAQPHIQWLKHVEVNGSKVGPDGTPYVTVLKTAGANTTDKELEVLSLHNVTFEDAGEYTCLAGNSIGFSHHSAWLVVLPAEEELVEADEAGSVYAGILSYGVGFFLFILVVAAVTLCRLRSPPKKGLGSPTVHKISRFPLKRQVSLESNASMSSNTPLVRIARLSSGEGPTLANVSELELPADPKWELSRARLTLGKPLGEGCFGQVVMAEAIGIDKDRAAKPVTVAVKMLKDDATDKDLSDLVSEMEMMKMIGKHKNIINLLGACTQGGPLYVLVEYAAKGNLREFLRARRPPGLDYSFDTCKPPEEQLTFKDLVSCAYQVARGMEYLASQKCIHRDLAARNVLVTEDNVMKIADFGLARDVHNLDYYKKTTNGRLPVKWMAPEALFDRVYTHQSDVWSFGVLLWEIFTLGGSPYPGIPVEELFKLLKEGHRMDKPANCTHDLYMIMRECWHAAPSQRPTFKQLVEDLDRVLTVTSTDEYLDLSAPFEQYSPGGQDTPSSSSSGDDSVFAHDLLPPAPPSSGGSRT
# T6 sequence (P28482 whole entry, species assumed): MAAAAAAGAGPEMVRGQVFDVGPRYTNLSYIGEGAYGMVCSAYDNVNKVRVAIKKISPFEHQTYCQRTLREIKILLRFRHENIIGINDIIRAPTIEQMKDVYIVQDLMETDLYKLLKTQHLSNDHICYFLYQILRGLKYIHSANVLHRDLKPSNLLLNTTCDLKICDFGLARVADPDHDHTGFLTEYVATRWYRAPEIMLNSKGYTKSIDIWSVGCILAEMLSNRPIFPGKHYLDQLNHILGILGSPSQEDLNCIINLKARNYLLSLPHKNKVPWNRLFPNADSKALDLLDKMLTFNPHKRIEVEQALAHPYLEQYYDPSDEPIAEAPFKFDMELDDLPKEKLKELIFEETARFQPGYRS
# T7 sequence (P48730 whole entry, species assumed): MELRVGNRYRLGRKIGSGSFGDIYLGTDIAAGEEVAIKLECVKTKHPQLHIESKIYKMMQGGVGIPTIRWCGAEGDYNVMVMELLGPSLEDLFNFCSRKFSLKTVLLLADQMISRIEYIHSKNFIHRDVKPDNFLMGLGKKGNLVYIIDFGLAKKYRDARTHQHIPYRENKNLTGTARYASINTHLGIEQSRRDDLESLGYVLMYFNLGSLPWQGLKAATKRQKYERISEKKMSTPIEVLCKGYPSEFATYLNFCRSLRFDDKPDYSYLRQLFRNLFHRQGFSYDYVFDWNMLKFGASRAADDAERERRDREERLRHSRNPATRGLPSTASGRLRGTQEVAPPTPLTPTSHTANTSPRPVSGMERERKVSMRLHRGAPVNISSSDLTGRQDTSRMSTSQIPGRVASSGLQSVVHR
# T10 sequence (P00519 whole entry, species assumed): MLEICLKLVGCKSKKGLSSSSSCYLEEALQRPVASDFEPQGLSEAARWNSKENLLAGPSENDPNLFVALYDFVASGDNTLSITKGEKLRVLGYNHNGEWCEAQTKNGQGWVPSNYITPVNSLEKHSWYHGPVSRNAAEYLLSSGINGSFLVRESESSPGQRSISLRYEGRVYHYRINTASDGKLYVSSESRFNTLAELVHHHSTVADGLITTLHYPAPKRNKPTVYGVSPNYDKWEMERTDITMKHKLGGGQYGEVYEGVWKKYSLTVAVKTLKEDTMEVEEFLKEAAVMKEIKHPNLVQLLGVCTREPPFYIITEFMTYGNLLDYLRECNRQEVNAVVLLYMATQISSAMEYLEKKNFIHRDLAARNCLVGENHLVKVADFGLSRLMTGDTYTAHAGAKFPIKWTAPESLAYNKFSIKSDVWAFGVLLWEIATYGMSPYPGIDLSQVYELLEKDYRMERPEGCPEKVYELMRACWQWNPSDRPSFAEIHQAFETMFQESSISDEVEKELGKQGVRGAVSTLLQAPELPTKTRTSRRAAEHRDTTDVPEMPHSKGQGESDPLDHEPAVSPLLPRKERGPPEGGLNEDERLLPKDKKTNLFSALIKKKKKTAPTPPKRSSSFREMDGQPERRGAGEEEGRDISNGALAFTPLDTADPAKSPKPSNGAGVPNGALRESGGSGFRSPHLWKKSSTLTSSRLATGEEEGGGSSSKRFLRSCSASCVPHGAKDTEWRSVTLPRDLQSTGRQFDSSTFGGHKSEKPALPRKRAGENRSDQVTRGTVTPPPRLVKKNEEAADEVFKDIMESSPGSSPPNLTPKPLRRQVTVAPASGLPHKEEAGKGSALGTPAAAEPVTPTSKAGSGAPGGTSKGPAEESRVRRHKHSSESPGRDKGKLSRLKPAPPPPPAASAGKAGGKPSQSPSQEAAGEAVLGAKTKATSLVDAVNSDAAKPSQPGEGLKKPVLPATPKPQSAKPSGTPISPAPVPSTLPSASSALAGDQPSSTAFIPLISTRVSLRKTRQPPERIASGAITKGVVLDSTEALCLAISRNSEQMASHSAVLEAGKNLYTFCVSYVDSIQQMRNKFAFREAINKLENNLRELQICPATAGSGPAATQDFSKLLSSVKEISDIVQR
ΔTm at 20 µM (BRPF1) [°C],ΔTm at 20 µM (BRD4) [°C],ΔTm at 20 µM (FGFR3) [°C],ΔTm at 20 µM (CDK2) [°C],ΔTm at 20 µM (MAPK1) [°C],ΔTm at 20 µM (CSNK1D) [°C],ΔTm at 20 µM (GSK3B) [°C],ΔTm at 20 µM (AURKA) [°C],ΔTm at 20 µM (ABL1) [°C],Structure (SMILES),activity at 1 µM [1] [%],Necrosis induction [NI] (HEK293T cells [2]),Apoptosis induction [AI] (HEK293T cells [3]),"Mean NFκB response ([4]; 1 µM, 1,5 h)","Mean NFκB response ([4]; 1 µM, 4,5 h)","Mean NFκB response ([4]; 1 µM, 7,5 h)","Mean NFκB response ([4]; 1 µM, 10,5 h)","Mean NFκB response ([4]; 1 µM, 13,5 h)","Mean NFκB response ([4]; 1 µM, 16,6 h)","Mean NFκB response ([4]; 1 µM, 19,5 h)","Mean NFκB response ([4]; 1 µM, 22,5 h)",also measured
-0.07,0.43,-0.69,-0.64,0.08,0.42,0.0162,0.09,-0.21,Cc1c(-c2ccc(O)cc2)n(Cc2ccc(OCCN3CCCCCC3)cc2)c2ccc(O)cc12 [Bazedoxifene],100,1.13 and 0.86 and 0.78 and 1.09,0.65 and 1.17 and 0.76 and 1.01 and 0.89 and 1.49,2824.44 GFP+-cells/confluence ∙ 1000,3791.70 GFP+-cells/confluence ∙ 1000,7416.63 GFP+-cells/confluence ∙ 1000,14689.03 GFP+-cells/confluence ∙ 1000,19525.92 GFP+-cells/confluence ∙ 1000,23266.53 GFP+-cells/confluence ∙ 1000,26260.00 GFP+-cells/confluence ∙ 1000,28446.67 GFP+-cells/confluence ∙ 1000,"EC50 (NR3A2 (ERβ); (lit.), ref Supplementary Table 1, read-out: Potency [nM] EC50, NR3A2 (ERβ)): 99 ± 53 nM; EC50 (NR3A1 (ERα); read-out: Potency [nM] EC50, NR3A1 (ERα)): 26 ± 14 nM; ΔTm at 20 µM (TRIM24): -2.05 °C; Mean NFκB response ([4]; 1 µM, 3 h): 3117.94 GFP+-cells/confluence ∙ 1000; Mean NFκB response ([4]; 1 µM, 6 h): 5066.30 GFP+-cells/confluence ∙ 1000; Mean NFκB response ([4]; 1 µM, 9 h): 11293.98 GFP+-cells/confluence ∙ 1000; Mean NFκB response ([4]; 1 µM, 12 h): 17230.27 GFP+-cells/confluence ∙ 1000; Mean NFκB response ([4]; 1 µM, 15 h): 21680.82 GFP+-cells/confluence ∙ 1000; Mean NFκB response ([4]; 1 µM, 18 h): 24611.25 GFP+-cells/confluence ∙ 1000; Mean NFκB response ([4]; 1 µM, 21 h): 27073.33 GFP+-cells/confluence ∙ 1000; Mean NFκB response ([4]; 1 µM, 24 h): 29033.33 GFP+-cells/confluence ∙ 1000; NF-κB activity (inflammatory response to ionomycin/PMA) [4]: reducing the inflammatory response"
0,-2.93,-3.24,0,-12,-4.77,0.72,-0.16,-4.09,C[C@]12CC[C@@H]3c4ccc(O)cc4C[C@@H](CCCCCCCCC[S+]([O-])CCCC(F)(F)C(F)(F)F)[C@H]3[C@@H]1CC[C@@H]2O (stereo partly shown) [Fulvestrant],89,0.62 and 0.70 and 0.56 and 0.98,0.62 (2×) and 0.98 and 0.59 and 0.64 and 0.41,2679.37 GFP+-cells/confluence ∙ 1000,3148.36 GFP+-cells/confluence ∙ 1000,4671.22 GFP+-cells/confluence ∙ 1000,6295.62 GFP+-cells/confluence ∙ 1000,7325.42 GFP+-cells/confluence ∙ 1000,8293.33 GFP+-cells/confluence ∙ 1000,8696.67 GFP+-cells/confluence ∙ 1000,9540.00 GFP+-cells/confluence ∙ 1000,"IC50 (NR3A2 (ERβ); (lit.), ref Supplementary Table 1, read-out: Potency [nM] IC50, NR3A2 (ERβ)): 4 nM; rel. activity from literature, NR3A2 (ERβ): % rem. act. of estradiol (NR3A2 (ERβ); rem. act. of estradiol): 9%; rel. activity from literature, NR3A1 (ERα): % ERα remaining (NR3A1 (ERα); ERα remaining (degrader), ref Supplementary Table 1): 18%; Growth rate [GR] (HEK293T cells [5]): 0.67 and 2.29 and 0.97 and 0.95 and 0.64 and 0.78 and 0.76 and 0.84 and 1.55 and 3.07; Metabolic activity [MA] (HEK293T cells [6]): 0.95 (2×) and 1.00 and 1.04 and 1.03 and 0.99 and 1.20 (2×); Other off-target at recom. conc. [7]: sEH; Mean NFκB response ([4]; 1 µM, 3 h): 2744.06 GFP+-cells/confluence ∙ 1000; Mean NFκB response ([4]; 1 µM, 6 h): 3642.03 GFP+-cells/confluence ∙ 1000; Mean NFκB response ([4]; 1 µM, 9 h): 5613.40 GFP+-cells/confluence ∙ 1000; Mean NFκB response ([4]; 1 µM, 12 h): 7011.92 GFP+-cells/confluence ∙ 1000; Mean NFκB response ([4]; 1 µM, 15 h): 8097.95 GFP+-cells/confluence ∙ 1000; Mean NFκB response ([4]; 1 µM, 18 h): 8436.67 GFP+-cells/confluence ∙ 1000; Mean NFκB response ([4]; 1 µM, 21 h): 9413.33 GFP+-cells/confluence ∙ 1000; Mean NFκB response ([4]; 1 µM, 24 h): 10080.00 GFP+-cells/confluence ∙ 1000; NF-κB activity (inflammatory response to ionomycin/PMA) [4]: reducing the inflammatory response"
